Assays:
[1] = system: iSLK.219 cell line; assay: Toxicity to the iSLK.219 cell line; assay type: cell-based; settings: 50 μM
[2] = system: HCMV; assay type: cell-based
Method: (§1) In example herpesvirus PRM assay methods shown herein, cell pellets were lysed in 2% SDS, 100 mM NaCl, 0.5 mM EDTA, 50 mM Tris, pH 8.2, and 50 μg of protein was reduced and alkylated with 25 mM TCEP and 50 mM CAM respectively for 20 min at 70° C. Proteins were then precipitated via methanol chloroform precipitation (Wessel & Flugg, Anal Biochem. 138(1):141-143, 1984), resuspended in 50 mM HEPES, pH 8.2 and digested overnight with trypsin (50:1 protein:enzyme w/w ratio). Digested peptides were desalted by SDB-RPS StageTip as previously described (Lum et al., Cell Syst., 7(6):[…], 2018; Greco et al., Methods Mol Biol 1410:39-63, 2016; Federspiel & Cristea, Methods Mol Biol., 1977:115-143, 2019).
(§2) Peptides (1.0 μg on column) were analyzed by LC-MS/MS using a Dionex Ultimate 3000 UHPLC coupled online to an EASYSpray ion source and a Q Exactive HF. Peptides were separated on an EASYSpray C18 column (75 μm×25 cm) heated to 50° C. using a linear gradient of 5% B to 32% B over 60 min at a flow rate of 250 nL/min and were ionized at 1.7 kv. Mobile phase A consisted of 0.1% FA in H2O and mobile phase B consisted of 0.1% FA, 2.9% H2O in ACN.
(§3) The PRM method was controlled by a peptide inclusion list with retention time windows of 6 min for selected precursor ions.
(§4) The PRM assay was developed and analyzed using the open-source software Skyline (Maclean et al., Bioinformatics 26(7):966-968, 2010). Summed area under the curve of 3-4 transitions per peptide was used for quantitation. Targeted peptides were normalized to host protein loading control peptides. Peptide values for each sample were scaled to the average of each peptide across all runs. The average of multiple peptides was used as the inferred value for the protein measurement when more than one peptide was quantified (Federspiel et al., PLoS Biol. 17(9):e3000437. Doi: 10.1371/journal.pbio.3000437). PRM quantitation data were graphed using the Python Seaborn and Matplotlib libraries.
(§5) MRC5 primary human fibroblasts (HFs) (ATCC CCL-171) were used as the model system for HSV-1 and HCMV infections and were cultured in complete growth medium (DMEM supplemented with 10% fetal bovine serum and 1% penicillin-streptomycin antibiotics) at 37° C. and 5% CO2. iSLK.219 cells harboring latent KSHV (a gift from Dr. Britt Glaunsinger, University of California, Berkeley) were grown in complete growth medium supplemented with 500 μg/ml hygromycin (ThermoFisher Scientific, 10687010) at 37° C. and 5% CO2. All cells were used for experiments within a maximum of 10 passages.
(§6) Wild type HSV-1 strain 17+ (a gift from Beate Sodeik, Hannover Medical School, Hannover, Germany) was propagated as previously described (Diner et al., 2015). Briefly, PO stocks were generated by electroporating pBAC-HSV-1 into U-2 OS cells. […] In a similar manner, wild type HCMV strain AD169 was produced from BAC electroporation into HFs and working stocks were propagated by infecting HFs at a low level. In both cases, cell-associated virus was released by sonication, combined with supernatant virus, then concentrated by ultracentrifugation (20,000 rpm, 2 hours, 4° C. with SW28 swinging bucket rotor [Beckman Coulter]) over a 10% ficoll (HSV-1) or 20% sorbitol (HCMV) cushion. Virus stock titers were determined by plaque assay for HSV-1 or tissue culture infectious dose (TCID50) for HCMV and infections were performed at a multiplicity of infection (MOI) of 3.
(§7) 12 hours prior to virus infection or reactivation, cells were treated with either the small molecule drug or DMSO/PBS control at an equivalent volume. […] For infection cycles lasting longer than 24 hours, small molecule drugs were re-added to the cell culture medium every 24 hours. Upon collection, cells were rinsed with PBS, scraped into a microcentrifuge tube, pelleted by centrifugation, and rinsed again with PBS.

[3] = system: HSV-1; assay: TRUSTED PRM assay of HSV-1 viral protein levels after small molecule treatment; assay type: cell-based; settings: for DBP (P04296) protein level / TK (P03176) protein level / UL8 (P10192) protein level / UL12 (P04294) protein level / UL30 (P04293) protein level / UL42 (P10226) protein level / US3 (P04413) protein level: E; for DBP (P04296) protein level / TK (P03176) protein level / UL8 (P10192) protein level / UL12 (P04294) protein level / UL30 (P04293) protein level / UL42 (P10226) protein level / US3 (P04413) protein level / ICP0 (P08393) protein level / ICP4 (P08392) protein level / ICP22 (P04485) protein level / UL54 (P10238) protein level / CVC2 (P10209) protein level / UL26 (P10210) protein level / UL48 (P06492) protein level / UL49 (P10233) protein level / gB (P10211) protein level / gI (P06487) protein level: FIG. 8A; for ICP0 (P08393) protein level / ICP4 (P08392) protein level / ICP22 (P04485) protein level / UL54 (P10238) protein level: IE; for CVC2 (P10209) protein level / UL26 (P10210) protein level / UL48 (P06492) protein level / UL49 (P10233) protein level / gB (P10211) protein level / gI (P06487) protein level: L
Method: as §1, §2, §3, §4, §5, §6, §7

[4] = system: HCMV; settings: cited from earlier work
[5] = system: HSV-1; settings: in MRC5 cells; cited from earlier work
[6] = 1 μM, by and after 12 HPI, vs DMSO

Oc1ccc(/C=C/c2cc(O)cc(O)c2)cc1 [trans-Resveratrol]
toxicity to the iSLK.219 cell line [1]: toxic
HCMV UL122 (IE2) and UL123 (IE1) levels [2]: decreases
HCMV UL123 levels ([2]; 24 HPI, […] CAY10602, 50 μM trans-Resveratrol): unchanged
HCMV UL26 levels ([2]; 48 HPI, […] CAY10602, 50 μM trans-Resveratrol): decreased
HCMV viral protein production ([2]; by 48 HPI): global reduction
HCMV UL99 levels ([2]; by 72 HPI, […] CAY10602, 50 μM trans-Resveratrol): robustly decreased
global decrease in HCMV viral protein levels ([2]; by 120 HPI, […] CAY10602, 50 μM trans-Resveratrol): ~70%
levels of HSV-1 viral transactivators ICP4 and UL48 (VP16) ([3]; 10 μM EX-527, 50 μM trans-Resveratrol): downregulated
decrease in HSV-1 protein levels ([3]; 50 μM): 30-40%
decrease in HCMV titers ([4]; […] CAY10602, 50 μM trans-Resveratrol): ~50%
HCMV titers [4]: decreased

Nc1nc2c(ncn2COCCO)c(=O)[nH]1 [ACV, acyclovir]
IC50 [5]: 2000 to 3000 nM
HSV-1 late gene expression [3]: reduction
effect on IE HSV-1 protein levels ([3]; 1 μM): little effect
levels of HSV-1 proteins DBP, UL42, UL30, UL8, UL12 and UL48 ([3]; 1 μM): significant reduction
decrease in levels of E HSV-1 proteins [3, 6]: ~20%
decrease in levels of L HSV-1 proteins [3, 6]: ~35%
expression of IE and E HSV-1 genes ([3]; 6 HPI): increase

Oc1ccc(/C=C/c2cc(O)cc(O)c2)cc1 [Res]
DBP (P04296) protein level ([3]; timepoint 2): 0.02121
TK (P03176) protein level ([3]; timepoint 2): 0.03832
UL8 (P10192) protein level ([3]; timepoint 2): 0.0171
UL12 (P04294) protein level ([3]; timepoint 2): 0.01763
UL30 (P04293) protein level ([3]; timepoint 2): 0.03876
UL42 (P10226) protein level ([3]; timepoint 2): 0.003041
US3 (P04413) protein level ([3]; timepoint 2): 0.01605
ICP0 (P08393) protein level ([3]; timepoint 2): 0.1622
ICP4 (P08392) protein level ([3]; timepoint 2): 0.1073
ICP22 (P04485) protein level ([3]; timepoint 2): 0.015
UL54 (P10238) protein level ([3]; timepoint 2): 0.0667
CVC2 (P10209) protein level ([3]; timepoint 2): 0.01003
UL26 (P10210) protein level ([3]; timepoint 2): 0.003453
UL48 (P06492) protein level ([3]; timepoint 2): 0.007183
UL49 (P10233) protein level ([3]; timepoint 2): 0.009894
gB (P10211) protein level ([3]; timepoint 2): 0.0128
gI (P06487) protein level ([3]; timepoint 2): 0.00718
DBP (P04296) protein level ([3]; timepoint 6): 0.9121
TK (P03176) protein level ([3]; timepoint 6): 0.9707
UL8 (P10192) protein level ([3]; timepoint 6): 1.056
UL12 (P04294) protein level ([3]; timepoint 6): 0.7418
UL30 (P04293) protein level ([3]; timepoint 6): 1.353
UL42 (P10226) protein level ([3]; timepoint 6): 0.2866
US3 (P04413) protein level ([3]; timepoint 6): 0.616
ICP0 (P08393) protein level ([3]; timepoint 6): 0.5333
ICP4 (P08392) protein level ([3]; timepoint 6): 1.063
ICP22 (P04485) protein level ([3]; timepoint 6): 0.7429
UL54 (P10238) protein level ([3]; timepoint 6): 0.9415
CVC2 (P10209) protein level ([3]; timepoint 6): 0.2592
UL26 (P10210) protein level ([3]; timepoint 6): 0.1986
UL48 (P06492) protein level ([3]; timepoint 6): 0.1816
UL49 (P10233) protein level ([3]; timepoint 6): 0.428
gB (P10211) protein level ([3]; timepoint 6): 0.5098
gI (P06487) protein level ([3]; timepoint 6): 0.5705
TK (P03176) protein level ([3]; timepoint 12): 1.24
UL8 (P10192) protein level ([3]; timepoint 12): 0.9123
UL12 (P04294) protein level ([3]; timepoint 12): 0.8878
UL30 (P04293) protein level ([3]; timepoint 12): 1.001
UL42 (P10226) protein level ([3]; timepoint 12): 0.7743
US3 (P04413) protein level ([3]; timepoint 12): 1.156
ICP0 (P08393) protein level ([3]; timepoint 12): 1.108
ICP4 (P08392) protein level ([3]; timepoint 12): 1.101
ICP22 (P04485) protein level ([3]; timepoint 12): 1.241
UL54 (P10238) protein level ([3]; timepoint 12): 1.026
CVC2 (P10209) protein level ([3]; timepoint 12): 0.7067
UL26 (P10210) protein level ([3]; timepoint 12): 0.7549
UL48 (P06492) protein level ([3]; timepoint 12): 0.8411
UL49 (P10233) protein level ([3]; timepoint 12): 1.283
gB (P10211) protein level ([3]; timepoint 12): 1.286
gI (P06487) protein level ([3]; timepoint 12): 0.956
TK (P03176) protein level ([3]; timepoint 18): 0.9806
UL8 (P10192) protein level ([3]; timepoint 18): 0.8259
UL12 (P04294) protein level ([3]; timepoint 18): 0.7425
UL30 (P04293) protein level ([3]; timepoint 18): 0.7926
UL42 (P10226) protein level ([3]; timepoint 18): 0.7837
US3 (P04413) protein level ([3]; timepoint 18): 0.9457
ICP0 (P08393) protein level ([3]; timepoint 18): 1.159
ICP4 (P08392) protein level ([3]; timepoint 18): 1.049
ICP22 (P04485) protein level ([3]; timepoint 18): 1.213
UL54 (P10238) protein level ([3]; timepoint 18): 0.8148
CVC2 (P10209) protein level ([3]; timepoint 18): 0.601
UL26 (P10210) protein level ([3]; timepoint 18): 0.8898
UL48 (P06492) protein level ([3]; timepoint 18): 0.9275
gB (P10211) protein level ([3]; timepoint 18): 1.306
gI (P06487) protein level ([3]; timepoint 18): 1.003

From patent US20240027453A1, “METHOD FOR DETECTION AND QUANTITATIVE MONITORING OF INFECTIONS WITH HERPESVIRUSES” (The Trustees of Princeton University, priority 2020, published 2024)
